ChEMBL document CHEMBL1130114 (J Med Chem, 1997)

How the values were obtained:
Assay in all cases: biochemical
Adenosine receptor A2a [1] = biological target: Adenosine receptor A2a (Homo sapiens, UniProt P29274, H250N)
Adenosine receptor A2a [2] = biological target: Adenosine receptor A2a (Homo sapiens, UniProt P29274)
Description: Binding affinity for HA-tagged wild type human Adenosine A2A receptor (WT) using [3H]CGS-21680 as radioligand expressed in COS-7 cells

Adenosine receptor A2a [3] = biological target: Adenosine receptor A2a (Homo sapiens, UniProt P29274, V84L)
Adenosine receptor A2a (Homo sapiens, UniProt P29274, V84L), sequence (P29274 whole entry V84L): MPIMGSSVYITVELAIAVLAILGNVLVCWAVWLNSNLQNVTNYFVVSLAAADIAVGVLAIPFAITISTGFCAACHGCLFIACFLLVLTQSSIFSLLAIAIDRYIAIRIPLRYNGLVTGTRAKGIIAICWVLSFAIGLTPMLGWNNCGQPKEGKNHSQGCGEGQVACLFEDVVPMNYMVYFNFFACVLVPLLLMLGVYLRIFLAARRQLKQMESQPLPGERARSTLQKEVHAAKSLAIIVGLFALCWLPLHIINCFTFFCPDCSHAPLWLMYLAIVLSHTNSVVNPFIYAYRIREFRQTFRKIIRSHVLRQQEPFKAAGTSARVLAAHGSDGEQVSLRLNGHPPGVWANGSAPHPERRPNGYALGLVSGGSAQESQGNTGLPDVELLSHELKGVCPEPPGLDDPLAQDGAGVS

Adenosine receptor A2a (Homo sapiens, UniProt P29274), sequence (P29274 whole entry): as the sequence (P29274 whole entry V84L) above, with L84V counted along it
Adenosine receptor A2a (Homo sapiens, UniProt P29274, H250N), sequence (P29274 whole entry H250N): as the sequence (P29274 whole entry V84L) above, with L84V, H250N counted along it

O=c1c(O)c(-c2ccccc2)oc2cc(O)cc(O)c12 [GALANGIN]
Ki (Adenosine receptor A2a [1]): 33 µM
Ki (Adenosine receptor A2a [2]): 16.7 µM
Ki (Adenosine receptor A2a [3]): 18.1 µM

N=C(N)NC(=O)c1nc(Cl)c(N)nc1N [AMILORIDE]
Ki (Adenosine receptor A2a [1]): 3.28 µM
Ki (Adenosine receptor A2a [2]): 12 µM
Ki (Adenosine receptor A2a [3]): 11.6 µM

COc1cc(OC)cc(C(CNc2ncnc3c2ncn3[C@@H]2O[C@H](CO)[C@@H](O)[C@H]2O)c2ccccc2C)c1 (stereo not given in full)
Ki (Adenosine receptor A2a [1]): 0.0359 µM
Ki (Adenosine receptor A2a [2]): 0.0381 µM
Ki (Adenosine receptor A2a [3]): 0.0189 µM

COC(=O)C1=C(C)NC(C)=C(C(=O)OC)C1c1ccccc1[N+](=O)[O-] [NIFEDIPINE]
Ki (Adenosine receptor A2a [1]): 22.2 µM
Ki (Adenosine receptor A2a [2]): 244 µM
Ki (Adenosine receptor A2a [3]): 22.2 µM

CCOC(=O)c1sc(SCc2ccccc2)c2c1CCCC2=O
Ki (Adenosine receptor A2a [1]): 54.3 µM
Ki (Adenosine receptor A2a [2]): 106 µM
Ki (Adenosine receptor A2a [3]): 72.6 µM
